# Laboratory results published in the METLIN SMRT retention time set (Domingo-Almenara et al. 2019).
# Test: gradient 5% acetonitrile 3 min, to 50% in 2 min, to 85% in 15 min, held 3 min, 100 µL/min
# Conditions: column: Zorbax Extend-C18 2.1 x 50 mm; eluents: water / acetonitrile, 0.1% formic acid
# Outline: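 Each retention time is based on an adduct peak selected computationally and verified by manual inspection. Measurements used HPLC–quadrupole time-of-flight mass spectrometry in positive and negative ionization mode on mixtures of ~100 pure standards. Chromatography ran on a Zorbax Extend-C18 column (2.1 × 50 mm, 1.8 μm) at 100 μL/min with water and acetonitrile, each containing 0.1% formic acid, and dead and dwell volumes of 40 μL and 900 μL.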
row,SMILES,RP-LC retention time
1,COc1ccc(C2CC(=O)c3cnn(-c4nc5ccccc5[nH]4)c3C2)c(OC)c1 (stereo not drawn),649 s
2,CCN(CC)CCCNC(=O)C1CCN(C(=O)c2oc3cc4sc(N(C)C)nc4cc3c2C)CC1,564 s
3,Cc1cc(C(=O)Nc2cccc(Cl)c2)nc2cc(-c3ccco3)nn12,1020 s
4,Cc1cc(N2CCCC2)n2nc(CN3CCN(c4ccccc4)CC3)nc2n1,600 s
5,O=C([C@H]1C[C@@H](F)CN1S(=O)(=O)c1ccc(Cl)cc1)N1CCOCC1,711 s
6,Cc1sc2ccn(Cc3ccc(F)cc3)c(=O)c2c1C(=O)NCc1ccco1,912 s
7,Cc1ccc2snc(C(=O)NC(C)C)c2c1,986 s
8,CC(C)CN1CCCn2ccnc2C1C1CCN(C(=O)C(C)C)CC1 (stereo not drawn),587 s
9,Cc1cc(C)c(S(=O)(=O)N2CCc3c(c(-c4nnc(-c5ccccc5F)o4)nn3C)C2)c(C)c1,1070 s
10,Cc1ccc(C)c(N2CCN(S(=O)(=O)c3cc(-c4nnc(C5CC5)o4)co3)CC2)c1,1140 s
11,CSc1ccc(-c2noc(Cn3c(=O)n(CC4CCCO4)c(=O)c4ccccc43)n2)cc1 (stereo not drawn),1070 s
12,Cc1ccc(S(=O)(=O)N2CC=C(N)N2)cc1,684 s
13,COc1ccc(-c2nnc(COc3ccc(NC(=O)C(NC(=O)c4ccco4)C(C)C)cc3)o2)cc1 (stereo not drawn),854 s
14,O=C(COc1ccccc1-c1nnc(-c2ccccc2)o1)N1CCN(C(=O)c2ccco2)CC1,760 s
15,CC(=O)NCc1nc(-c2ccc(N3CCSCC3)nc2)no1,653 s
16,CCOC(=O)c1noc2nc(C)nc(N(C)c3cc(C)ccc3OC)c12,1040 s
17,O=C(NCc1cccnc1)C1CCN(Cc2cc3ccccc3n2Cc2ccccc2Cl)CC1,630 s
18,CC1=C(c2ccc(C)cc2)S(=O)(=O)N=C1N1CCCN(C(=O)Cc2cccnc2)CC1,624 s
19,Cc1sc(C)c(S(=O)(=O)N2CCCCC2)c1-c1cc(C(F)(F)F)on1,1210 s
20,CCCN1CCN(CCNC(=O)C2CCCN(c3ncc(-c4cccc(F)c4)cn3)C2)CC1 (stereo not drawn),641 s
21,O=C(c1ccccn1)N1CCC2(CC1)NC(=O)N(Cc1ccccc1Cl)C2=O,716 s
22,CCn1cc(CN2CC(F)(F)C[C@H]2COc2ccncc2)c2ccccc21,670 s

row,SMILES,RP-LC retention time
1,COC(=O)Cn1c(C2CC(=O)N(c3cc(Cl)ccc3OC)C2)nc2ccccc21 (stereo not drawn),758 s
2,Cc1csc(-c2cc(S(=O)(=O)Nc3ccc(F)cc3Cl)c(C)s2)n1,1040 s
3,COC(=O)CC(NC(=O)N1CCCn2nc(-c3cccnc3)cc2C1)c1ccccc1 (stereo not drawn),596 s
4,Cc1cccn2c(=O)cc(CN(C)Cc3ccc(Cl)cc3)nc12,629 s
5,O=C(NCc1ccccc1)C1CCN(c2cnc(N3CCCC3)nc2)CC1,639 s
6,COc1cccc2c1cc1c(=O)n(CC(=O)N3CCN(c4ccccn4)CC3)nc(C)n12,591 s
7,O=C(CCC1CCN(S(=O)(=O)c2cccc(F)c2)CC1)NC1CC1,781 s
8,O=C(C1CCN(S(=O)(=O)c2ccc3[nH]c(=O)ccc3c2)CC1)N1CCN(c2ccccc2F)CC1,754 s
9,O=C(NCCCN1CCCC1)c1ccc(-c2noc(-c3ccccc3)n2)s1,680 s
10,Cc1ccc(NC(=O)N2CCC(C(C)C(=O)Nc3ccc(Cl)cc3)CC2)cc1 (stereo not drawn),951 s
11,CC(=O)N1c2ccc(S(=O)(=O)N3CCCC3C(=O)Nc3nc4ccc(C)cc4s3)cc2CC1C (stereo not drawn),935 s
12,COc1ccc(C2(C(=O)N3C[C@H]4C[C@H](C3)[C@H]3CCCC(=O)N3C4)CCCCC2)cc1,826 s
13,CC(C)C(=O)NC(C)c1nc2ccccc2n1CC(N)=O (stereo not drawn),503 s
14,COc1ccc(N2C=C(C(=O)N3CCCC3)S(=O)(=O)c3ccc(Cl)cc32)cc1OC,816 s
15,CCOc1cc(C(=O)NC(C(=O)Nc2nc3ccccc3[nH]2)C(C)CC)cc(OCC)c1OCC (stereo not drawn),854 s
16,COc1ccc(C(C)NC(=O)C2CCN(c3cnc4nccnc4c3)CC2)cc1OC (stereo not drawn),664 s
17,CCOC(=O)c1[nH]c(C)c(CCC(=O)N2CCC(C(=O)N3CCCCC3)CC2)c1C,737 s
18,COc1ncccc1CNC(=O)c1cnn2cccnc12,638 s
19,O=C(c1ccc2ncccc2c1)N1CCC(c2nc(C3CC3)n[nH]2)CC1,491 s
20,CCN(CC)CCNC(=O)C1c2ccccc2C(=O)N2CCc3cc(OC)c(OC)cc3C12 (stereo not drawn),599 s
21,CCCN1CCN(Cc2nc(-c3ccc(N4CCSCC4)nc3)no2)CC1,615 s
